# Results as given in PubChem BioAssay (NCI).
#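 Here, GI50 denotes the concentration required for 50% inhibition of growth. Definition used: TGI = concentration required for complete inhibition of growth.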
# What was measured:
# Assay in all cases: inhibition of tumour cell growth, NCI panel, 384-well format
# [1] = tested on: SK-MEL-28 melanoma
# [2] = tested on: SW-620 colon
# [3] = tested on: CAKI-1 renal
# [4] = tested on: EKVX NSCLC
# [5] = tested on: RPMI-8226 leukemia
# [6] = tested on: TK-10 renal
# [7] = tested on: HL-60(TB) leukemia
# [8] = tested on: K-562 leukemia
# [9] = tested on: HCT-15 colon
# [10] = tested on: OVCAR-3 ovarian
# [11] = tested on: SN12C renal
# [12] = tested on: U251 glioblastoma
# [13] = tested on: MALME-3M melanoma
# [14] = tested on: SNB-75 CNS
# [15] = tested on: HT29 colon
# [16] = tested on: OVCAR-8 ovarian
# [17] = tested on: SF-268 CNS
# [18] = tested on: UO-31 renal
# [19] = tested on: OVCAR-4 ovarian
# [20] = tested on: MDA-MB-231 breast
# [21] = tested on: HOP-62 NSCLC
# [22] = tested on: NCI-H23 lung
# [23] = tested on: MCF7 breast
# [24] = tested on: RXF 393 renal
# [25] = tested on: SF-539 CNS
# [26] = tested on: MOLT-4 leukemia
# [27] = tested on: NCI-H460 NSCLC
# [28] = tested on: HCC-2998 colon
# [29] = tested on: HOP-92 NSCLC
# [30] = tested on: SK-OV-3 ovarian
# [31] = tested on: NCI/ADR-RES ovarian
# [32] = tested on: MDA-MB-435 melanoma
# [33] = tested on: ACHN renal
# [34] = tested on: HS 578T breast
# [35] = tested on: A549 NSCLC
# [36] = tested on: SK-MEL-5 melanoma
# [37] = tested on: 786-0 renal
# [38] = tested on: LOX IMVI melanoma
# [39] = tested on: NCI-H522 lung
# [40] = tested on: M14 melanoma
# [41] = tested on: PC-3 prostate
# [42] = tested on: SNB-19 CNS
# [43] = tested on: NCI-H322M lung
# [44] = tested on: OVCAR-5 ovarian
# [45] = tested on: UACC-257 melanoma
# [46] = tested on: COLO 205 colon
# [47] = tested on: A498 renal
# [48] = tested on: T-47D breast
# [49] = tested on: CCRF-CEM leukemia
# [50] = tested on: MDA-MB-468 breast
# [51] = tested on: NCI-H226 lung
# [52] = tested on: KM12 colon
# [53] = tested on: BT-549 breast
# [54] = tested on: DU-145 prostate
# [55] = tested on: SR leukemia
# [56] = tested on: SF-295 CNS
# [57] = tested on: UACC-62 melanoma
# [58] = tested on: IGROV1 ovarian
compound,measurement,setting,value
CN(C)c1cc2c(cc1Sc1nc3c(N)nccc3n1CCNCC(C)(C)C)OCO2,GI50,[1],327 nM
same,TGI,[1],11.9 µM
same,GI50,[2],215 nM
same,TGI,[2],715 nM
same,GI50,[3],449 nM
same,TGI,[3],15.8 µM
same,GI50,[4],344 nM
same,TGI,[4],11.8 µM
same,GI50,[5],135 nM
same,TGI,[5],291 nM
same,GI50,[6],400 nM
same,TGI,[6],5.55 µM
same,GI50,[7],111 nM
same,TGI,[7],241 nM
same,GI50,[8],199 nM
same,TGI,[8],737 nM
same,GI50,[9],144 nM
same,TGI,[9],8.64 µM
same,GI50,[10],234 nM
same,TGI,[10],631 nM
same,GI50,[11],221 nM
same,TGI,[11],506 nM
same,GI50,[12],352 nM
same,TGI,[12],1420 nM
same,GI50,[13],241 nM
same,TGI,[13],548 nM
same,GI50,[14],273 nM
same,TGI,[14],553 nM
same,GI50,[15],188 nM
same,TGI,[15],2260 nM
same,GI50,[16],174 nM
same,TGI,[16],349 nM
same,GI50,[17],221 nM
same,TGI,[17],11.1 µM
same,GI50,[18],683 nM
same,TGI,[18],19.5 µM
same,GI50,[19],324 nM
same,TGI,[19],883 nM
same,GI50,[20],231 nM
same,TGI,[20],608 nM
same,GI50,[21],292 nM
same,TGI,[21],934 nM
same,GI50,[22],134 nM
same,TGI,[22],467 nM
same,GI50,[23],89.5 nM
same,TGI,[23],1680 nM
same,GI50,[24],127 nM
same,TGI,[24],348 nM
same,GI50,[25],236 nM
same,TGI,[25],541 nM
same,GI50,[26],58.9 nM
same,TGI,[26],192 nM
same,GI50,[27],138 nM
same,TGI,[27],297 nM
same,GI50,[28],183 nM
same,TGI,[28],419 nM
same,GI50,[29],183 nM
same,TGI,[29],503 nM
same,GI50,[30],231 nM
same,TGI,[30],10.8 µM
same,GI50,[31],280 nM
same,TGI,[31],625 nM
same,GI50,[32],447 nM
same,TGI,[32],15.3 µM
same,GI50,[33],376 nM
same,TGI,[33],13.2 µM
same,GI50,[34],261 nM
same,TGI,[34],769 nM
same,GI50,[35],131 nM
same,TGI,[35],12.1 µM
same,GI50,[36],79.8 nM
same,TGI,[36],1450 nM
same,GI50,[37],280 nM
same,TGI,[37],963 nM
same,GI50,[38],177 nM
same,TGI,[38],330 nM
same,GI50,[39],191 nM
same,TGI,[39],377 nM
same,GI50,[40],303 nM
same,TGI,[40],3.44 µM
same,GI50,[41],229 nM
same,TGI,[41],517 nM
same,GI50,[42],423 nM
same,TGI,[42],6.84 µM
same,GI50,[43],299 nM
same,TGI,[43],14.8 µM
same,GI50,[44],390 nM
same,TGI,[44],9.75 µM
same,GI50,[45],507 nM
same,TGI,[45],4.14 µM
same,GI50,[46],66.4 nM
same,TGI,[46],325 nM
same,GI50,[47],82.9 nM
same,TGI,[47],11.9 µM
same,GI50,[48],350 nM
same,TGI,[48],10.5 µM
same,GI50,[49],118 nM
same,TGI,[49],312 nM
same,GI50,[50],307 nM
same,TGI,[50],507 nM
same,GI50,[51],387 nM
same,TGI,[51],13.2 µM
same,GI50,[52],171 nM
same,TGI,[52],6.35 µM
same,GI50,[53],118 nM
same,TGI,[53],664 nM
same,GI50,[54],228 nM
same,TGI,[54],1130 nM
same,GI50,[55],62.8 nM
same,TGI,[55],197 nM
same,GI50,[56],218 nM
same,TGI,[56],499 nM
same,GI50,[57],226 nM
same,TGI,[57],590 nM
same,GI50,[58],270 nM
same,TGI,[58],742 nM
